Measurements as given in publication PMC11431785, “From In Vitro Promise to In Vivo Reality: An Instructive Account of Infection Model Evaluation of Antimicrobial Peptides” (International Journal of Molecular Sciences, 2024).
Residues, ends and D or L forms follow the SMILES beside them. No end group written: not given here.

What was measured:
Balb/c mice [1] = experiment: Sighting study (tolerance in mice); format: in vivo, mouse; details: for tolerance in sighting study: i.p., 30 mg/kg for Ctn[15-34] and Ctn[15-34] re, 3 mg/kg for Ctn re as initial doses; for time to death of an animal: sighting study, one animal
Procedure: To determine the maximum lethal dose and appropriate doses for the main study, a sighting study (Figure 2A) was first conducted. Peptides (Ctn[15-34], Ctn[15-34] re and Ctn re) were administered intraperitoneally (i.p.) at initial doses of 30 mg/kg for Ctn[15-34] and Ctn[15-34] re and 3 mg/kg for Ctn re. If no toxicity signs were observed, the dose was increased. If toxicity signs or death occurred, a lower dose was administered to another animal until an adequate dose was found. After the sighting study was completed, two main studies were performed.
(§1) Nine clinical parameters were assessed by a scoring system (see Table S1). For each parameter a score from 0 to 3 in increasing severity was used. In the sighting (tolerance) study, the clinical score was measured at 10 min, 30 min, 1 h, 2 h, 4 h, 7 h, 24 h, and 48 h after peptide administration. In assays 1 and 2 of the tolerance study, scoring was recorded twice a week for 2 weeks. In the efficacy study, the clinical score was recorded every 2–3 h on day 0 and twice a day on days 1 and 2. An animal was euthanized if it scored 3 on any parameter, or if a combined score of 7 or above was reached.

Balb/c mice [2] = experiment: Tolerance assay 1; format: in vivo, mouse; details: single i.p. dose, 30 mg/kg Ctn[15-34], 3 mg/kg Ctn re, five female mice per group, 14 days
Procedure: Assay 1: […] randomly distributed groups of five female mice each were used for Ctn[15-34] (30 mg/kg) and Ctn re (3 mg/kg) and negative control (HBS). Ctn[15-34] re was not included due to spontaneous mortality in the sighting study, even at low concentrations. The peptide was administered i.p., and mice were monitored twice on day 0, once a day until day 4, and then three times a week. The study lasted for 14 days, after which the animals were euthanized, and a systematic necropsy was performed.
(§2) Body weight (BW, g) gain (%) was determined at different stages. In the tolerance assays, BW gain was recorded before inoculation and twice a week for 2 weeks. In the efficacy studies, BW gain was likewise measured before inoculation and then twice a day.
as §1

[3] = cited from earlier work; for t1/2: human serum mixed 1:1 with peptide 1 mM in water, 37 °C with stirring, aliquots 0-1440 min, TCA precipitation, HPLC
Description: (§3) Table 1 Sequence and properties of peptides in this study. | column: t1/2 (min) || In this work, we focus on crotalicidin (Ctn), a 34-residue AMP from the venom of Crotalus durissus terrificus, a South American pit viper. […] It is, however, slightly toxic to eukaryotic cells, including cancer cells, which makes it a good anticancer peptide (ACP) candidate. Virtual Ctn dissection with elastase yields two fragments, Ctn[1-14] and Ctn[15-34]. While the former (KRFKKFFKKVKKSV) retains the α-helical conformation of Ctn, it loses both the anticance ...

Balb/c mice [4] = experiment: Tolerance assay 2; format: in vivo, mouse
Procedure: Assay 2: Two randomly distributed groups of six female mice each were given two different concentrations of Ctn[15-34] (30 and 20 mg/kg). Each animal was treated with each dose three times a day for three days.
as §2, §1

A. baumannii [5] = experiment: Histopathology: hematoxylin and eosin stain and tissue Gram stain; format: in vivo, mouse; details: infected and treated mice
Procedure: Following termination of the animals, the following organs were harvested and preserved: right lung, digestive system, pancreas, kidneys, liver, spleen, and brain. These organs were fixed in paraformaldehyde at 4 °C for 24 h.
The tissue processing proceeded through a stepwise procedure. Firstly, the tissues underwent a rinse with formalin for 1.5 h, followed by cleaning with distilled water for 5 min. Subsequently, they were dehydrated using a series of graded ethanol solutions: 80% ethanol for 1 h, 96% ethanol for two consecutive immersions lasting 1 h each, and finally, 100% ethanol for 2 consecutive immersions of 1 h each and an additional immersion for 1.5 h. Following dehydration, the tissues were submerged in xylene for two immersions, each lasting 1.5 h, before being placed in hot liquid paraffin for two consecutive immersions of 1 h each and an additional immersion of 2 h. The treated specimens were embedded in tissue cassettes using a TissueTek embedding console and allowed to cool until the paraffin solidified.
From each paraffin block, […] sections were cut using a microtome (Leica) and mounted on slides. These slides underwent rehydration through a series of graded alcohols: 100% ethanol for 5 min, 85% ethanol for 5 min, 70% ethanol for 5 min, and distilled water. […] After drying, the sections were analyzed using a microscope (Leica DMR, Leica Biosystems, IL, United States). […]

[6] = fragments compared with Ctn; cited from earlier work
Description: as §3, with “In” for “Table 1 Sequence and properties of peptides in this study. | column: t1/2 (min) || In”

A. baumannii [7] = experiment: Efficacy assay 1 in mouse systemic infection model; format: in vivo
Procedure: (§4) A systemic infection model was established in mice, as described before. Briefly, an aliquot from A. baumannii stock in 15% glycerol at −80 °C was taken to culture in 3 mL of LB overnight at 37 °C and 250 rpm. After an OD600 reading to adjust bacterial concentration, the culture was diluted with an identical volume of 10% porcine mucin (an enhancer of bacterial infectivity) to a final 1 × 10^8 CFU/mL concentration. A 10 mL/kg inoculation volume was used for each animal.
Assay 1: A total of 24 mice (12 male, 12 female) randomly distributed into four groups were infected i.p. as described above, then each group was treated with Ctn[15-34] (30 mg/kg), Ctn re (3 mg/kg), colistin (10 mg/kg, positive control) or vehicle (HBS, negative control). Treatment (performed blindly) was applied 2 h after infection in a single i.p. dose. […]
as §1, with “For each parameter a score from 0 to 3 in increasing severity was used.” left out

A. baumannii [8] = experiment: Efficacy assay 2 in mouse systemic infection model; format: in vivo
Procedure: as §4
Assay 2: In total, 24 mice (12 male, 12 female) randomly distributed into six groups were infected i.p. as described above, then treated in duplicate groups with Ctn[15-34] (20 mg/kg), colistin (5 mg/kg, positive control) or vehicle (HBS, negative control). Treatment (performed blindly) was applied i.p. 2 h after infection and then every 4 h during day 0, and thrice daily for the next 2 days. All animals were checked for clinical signs twice a day for three days, as described in Table S1. On day 2, animals were euthanized with a 200 mg/kg i.p. dose of pentobarbital.
as §1

A. baumannii [9] = experiment: Colony-forming units (CFU) in mouse tissues; format: in vivo
Procedure: CFUs in the spleen and lungs of animals in the efficacy studies were counted after euthanasia. One lung and half of the spleen were extracted from each animal. Animals found dead overnight were excluded. The organs were weighed and homogenized in 1 mL of HBS. Subsequently, six serial 10-fold dilutions were prepared, each dilution seeded on a Petri dish with LB-agar and colonies counted after 16 h incubation at 37 °C. Final CFU counts are expressed relative to organ weight (CFU/g).

A. baumannii [10] = details: MHB, inoculum 5 × 10^5 CFU/mL, 20–22 h at 37 °C, 0.04% BSA and 0.002% acetic acid, duplicate; cited from earlier work
Description: Table 1 Sequence and properties of peptides in this study. | column: MIC (μM) A. baumannii

[11] = system: 1BR3G human fibroblast cells; details: cytotoxicity, RPMI 2% FBS, Cell Titer Blue, triplicate; cited from earlier work
Description: Table 1 Sequence and properties of peptides in this study. | column: IC50 (μM)

CC[C@@H](C)[C@@H](NC(=O)CNC(=O)[C@H](NC(=O)[C@H](NC(=O)[C@H](NC(=O)[C@H]1CCCN1C(=O)[C@H](N)Cc1ccccc1)[C@H](C)CC)[C@H](C)O)C(C)C)C(=O)N[C@@H](C(=O)N[C@H](CCSC)C(=O)N1CCC[C@@H]1C(=O)N[C@H](CCCCN)C(=O)N[C@H](CCCCN)C(=O)N[C@H](Cc1ccccc1)C(=O)N[C@@H](C(=O)N[C@H](CCCCN)C(=O)N[C@H](CCCCN)C(=O)N[C@H](CC(C)C)C(=O)N[C@H](CCCNC(=N)N)C(=O)N[C@H](CCCCN)C(=O)N[C@H](CCCCN)C(=O)N[C@@H](C(=O)N[C@H](CO)C(=O)N[C@H](CCCCN)C(=O)N[C@H](CCCCN)C(=O)N[C@@H](C(=O)N[C@H](CCCCN)C(=O)N[C@H](CCCCN)C(=O)N[C@H](Cc1ccccc1)C(=O)N[C@H](Cc1ccccc1)C(=O)N[C@H](CCCCN)C(=O)N[C@H](CCCCN)C(=O)N[C@H](Cc1ccccc1)C(=O)N[C@H](CCCNC(=N)N)C(=O)N[C@H](CCCCN)C(N)=O)C(C)C)C(C)C)[C@H](C)CC)C(C)C [Ctn re] (HELM PEPTIDE1{[dF].[dP].[dI].[dT].[dV].G.[dI].[dV].[dM].[dP].[dK].[dK].[dF].[dI].[dK].[dK].[dL].[dR].[dK].[dK].[dV].[dS].[dK].[dK].[dV].[dK].[dK].[dF].[dF].[dK].[dK].[dF].[dR].[dK].[am]}$$$$V2.0)
tolerance in sighting study (Balb/c mice [1]): viable at the predicted dosages
clinical condition in tolerance assay 1 (Balb/c mice [2]): most animals showed improved clinical conditions in the following days
t1/2 [3]: 211 min

CC[C@@H](C)[C@@H](NC(=O)CNC(=O)[C@H](NC(=O)[C@H](NC(=O)[C@H](NC(=O)[C@H]1CCCN1C(=O)[C@H](N)Cc1ccccc1)[C@H](C)CC)[C@H](C)O)C(C)C)C(=O)N[C@@H](C(=O)N[C@H](CCSC)C(=O)N1CCC[C@@H]1C(=O)N[C@H](CCCCN)C(=O)N[C@H](CCCCN)C(=O)N[C@H](Cc1ccccc1)C(=O)N[C@@H](C(=O)N[C@H](CCCCN)C(=O)N[C@H](CCCCN)C(=O)N[C@H](CC(C)C)C(=O)N[C@H](CCCNC(=N)N)C(=O)N[C@H](CCCCN)C(=O)N[C@H](CCCCN)C(N)=O)[C@H](C)CC)C(C)C [Ctn[15-34] re] (HELM PEPTIDE1{[dF].[dP].[dI].[dT].[dV].G.[dI].[dV].[dM].[dP].[dK].[dK].[dF].[dI].[dK].[dK].[dL].[dR].[dK].[dK].[am]}$$$$V2.0)
time to death of an animal (Balb/c mice [1]; 5 mg/kg i.p.): 33 min
time to death of an animal (Balb/c mice [1]; 15 mg/kg i.p.): ≤ 6 min
time to death of an animal (Balb/c mice [1]; 30 mg/kg i.p.): ≤ 3 min
tolerance in sighting study (Balb/c mice [1]): toxic
t1/2 [3]: 921 min

KKRLKKIFKKPMVIGVTIPF-NH2 [Ctn[15-34]]
tolerance in sighting study (Balb/c mice [1]): viable at the predicted dosages
clinical condition in tolerance assay 1 (Balb/c mice [2]): most animals showed improved clinical conditions in the following days
clinical signs in tolerance assay 2 (Balb/c mice [4]; 20 mg/kg i.p. thrice daily for 3 days, compared with 30 mg/kg): reversible and consistently lower than for the 30 mg/kg group
BW loss during the first 24 h (Balb/c mice [4]; 30 and 20 mg/kg i.p. thrice daily for three days, both dosage groups, six female mice each): 6–9%
hematoxylin and eosin staining of spleen, lung, liver and kidney (A. baumannii [5]): apoptosis was noted in the spleen lymphocytes of one animal
t1/2 [3]: 770 min

KRFKKFFKKVKKSV [Ctn[1-14], fragment of crotalicidin, residues 1-14]
anticancer and antimicrobial properties [6]: loses both the anticancer and antimicrobial properties

LL-37: AMP named for comparison of half-life [reference compound]
half-life ([3]; typical AMP named for comparison with Ctn[15-34], no reference given): 60 min

colistin
clinical signs of treated infected animals (A. baumannii [7]; efficacy assay 1, colistin 10 mg/kg single i.p. dose): weight loss on the first day with subsequent recovery
survival rate (A. baumannii [7]; efficacy assay 1, single i.p. dose 2 h after infection, colistin 10 mg/kg, 3 days): 100%
clinical signs of treated infected animals (A. baumannii [8]; efficacy study 2, thrice daily dose of colistin, compared to the previous study): Increased toxicity
female animals surviving at the endpoint (A. baumannii [8]; efficacy study 2, thrice daily i.p. dosing, female mice): 75%
male animals surviving at the endpoint (A. baumannii [8]; efficacy study 2, thrice daily i.p. dosing, male mice): 50%
CFU/g in left lung and spleen (A. baumannii [9]; after both efficacy studies, positive control group): 10^1–10^2 CFU/g
bacterial presence in the spleen or lungs (A. baumannii [9]; efficacy study 2, animals not surviving the thrice daily colistin dosage): nearly negligible
Gram stain, bacterial load in spleen, lung, liver and kidney (A. baumannii [5]): no evidence of bacterial survival

crotalicidin [Ctn]
MIC (μM) A. baumannii (A. baumannii [10]): 0.78 µM
IC50 [11]: 14.3 µM
t1/2 [3]: 71 min
